{"source": "ChEMBL document CHEMBL1201862", "about": "“PubChem BioAssay data set” (2004)", "key": {"[1]": {"experiment": "M. tuberculosis H37Rv growth inhibitors, H37Rv strain (AID 1626)", "assay_type": "functional"}, "[2]": {"target": "T1, Adenosylmethionine-8-amino-7-oxononanoate aminotransferase (Mycobacterium tuberculosis, UniProt P9WQ81)", "T1 sequence (P9WQ81 whole entry)": "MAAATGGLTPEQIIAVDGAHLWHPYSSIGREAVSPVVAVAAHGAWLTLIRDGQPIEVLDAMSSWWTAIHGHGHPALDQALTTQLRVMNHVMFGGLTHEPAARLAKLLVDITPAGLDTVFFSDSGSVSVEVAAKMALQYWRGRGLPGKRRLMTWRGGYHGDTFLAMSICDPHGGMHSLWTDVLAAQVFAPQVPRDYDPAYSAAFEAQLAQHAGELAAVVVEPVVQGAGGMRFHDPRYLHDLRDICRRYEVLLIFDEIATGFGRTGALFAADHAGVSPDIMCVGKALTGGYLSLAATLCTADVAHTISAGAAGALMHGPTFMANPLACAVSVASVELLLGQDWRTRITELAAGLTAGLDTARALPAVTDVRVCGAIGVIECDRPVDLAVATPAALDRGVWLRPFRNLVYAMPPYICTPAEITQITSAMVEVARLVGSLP", "experiment": "Mycobacterium tuberculosis BioA enzyme inhibitor Measured in Biochemical System Using Plate Reader - 2163-02_Inhibitor_Dose_CherryPick_Activity.", "assay_type": "functional, Mycobacterium tuberculosis UT205"}, "BJ [3]": {"tested_on": "BJ", "experiment": "cells", "assay_type": "functional, cell-based", "settings": "Homo sapiens"}, "[4]": {"experiment": "LGR2 antagonists, dose response, cell-based, HEK293, CRE-luciferase reporter, cherry pick, set 2 (AID 743343);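 note: transfected cells were stimulated with diluted bursicon conditioned medium after compound addition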", "assay_type": "functional"}, "[5]": {"experiment": "Luminescence Cell-Based Dose Response HTS to Identify Inhibitors of 5'UTR Stem-Loop Driven Prion Protein mRNA Translation in H4 Neuroglioblastoma Cells. [Related pubchem assays: 1827 (Project Summary), 1813 (Primary HTS)]", "assay_type": "functional"}, "[6]": {"experiment": "HepG2 cell cytotoxicity, dose response, cytotoxicity control, plate reader, cherry-pick, antagonist series (AID 743416)", "assay_type": "functional, cell-based"}, "[7]": {"experiment": "inhibitors of SNCA 5'UTR-driven reporter translation, confirmation, H4 neuroglioma cells, luminescence (AID 1988)", "assay_type": "functional, cell-based"}, "[8]": {"experiment": "A549 cell cytotoxicity, dose response, cytotoxicity control, plate reader, cherry-pick, antagonist series (AID 743412)", "assay_type": "functional, cell-based"}, "[9]": {"experiment": "HEK293 cell cytotoxicity, dose response, cytotoxicity control, plate reader, cherry-picked samples (AID 743446)", "assay_type": "functional, cell-based"}, "[10]": {"experiment": "MC4R antagonists, dose response, counter-screen for LGR2 antagonist project, cell-based, plate reader, cherry pick (AID 743444);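 note: transfected HEK 293 cells stimulated with alpha-MSH peptide; potency of inhibitors of the alpha-MSH evoked signal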", "assay_type": "functional"}, "BJ [11]": {"tested_on": "BJ", "experiment": "cytotoxicity toward BJ-TERT fibroblasts, dose response, cell-based, RAS-independent, luminescence (AID 1933)", "assay_type": "functional", "settings": "Homo sapiens"}, "[12]": {"experiment": "inhibitors of firefly luciferase expression or activity, dose response, H4 neuroglioma cells, luminescence (AID 1990)", "assay_type": "functional, cell-based"}, "BJ [13]": {"tested_on": "BJ", "experiment": "cytotoxicity toward BJ-TERT-LT-ST fibroblasts, dose response, cell-based, RAS-independent, luminescence (AID 1935);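 note: BJ fibroblasts immortalized with TERT plus LT and ST oncogenes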", "assay_type": "functional", "settings": "Homo sapiens"}, "[14]": {"experiment": "cytotoxicity toward DRD oncogenic fibroblasts, dose response, cell-based, non-viral oncogenic, luminescence (AID 1934)", "assay_type": "functional", "settings": "Homo sapiens"}, "Paired box protein Pax-8": {"target": "Paired box protein Pax-8 (Homo sapiens, UniProt Q06710)", "sequence (Q06710 whole entry)": "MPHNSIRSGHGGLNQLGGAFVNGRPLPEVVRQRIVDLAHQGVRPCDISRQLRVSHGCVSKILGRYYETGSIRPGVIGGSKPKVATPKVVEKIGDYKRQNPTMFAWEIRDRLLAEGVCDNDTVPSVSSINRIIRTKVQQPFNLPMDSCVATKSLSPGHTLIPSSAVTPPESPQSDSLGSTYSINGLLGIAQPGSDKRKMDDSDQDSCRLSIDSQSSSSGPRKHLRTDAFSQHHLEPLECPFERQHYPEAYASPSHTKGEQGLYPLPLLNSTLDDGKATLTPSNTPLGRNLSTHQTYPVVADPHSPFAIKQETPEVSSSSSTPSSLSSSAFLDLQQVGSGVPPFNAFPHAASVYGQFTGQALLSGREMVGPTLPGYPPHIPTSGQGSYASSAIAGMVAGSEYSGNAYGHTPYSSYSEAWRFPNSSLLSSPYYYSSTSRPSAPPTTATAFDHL", "experiment": "inhibitors of PAX8-driven TPO luciferase reporter, dose response, RMG-I cells, cherry-pick (AID 687027);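 note: luciferase reporter driven by Pax8 target thyroperoxidase promoter measured by SteadyGlo luminescence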", "assay_type": "functional, cell-based"}, "[15]": {"experiment": "cytotoxicity in OVCAR8 ovarian cancer cells, dose response, PAX8 project, cell-based, plate reader, dry powder samples (AID 743197)", "assay_type": "functional", "settings": "OVCAR-8"}, "[16]": {"experiment": "IGROV1 ovarian cancer cell cytotoxicity, dose response, PAX8 inhibitor project, plate reader, dry powder samples (AID 743043)", "assay_type": "functional, cell-based", "settings": "IGROV-1"}, "[17]": {"experiment": "NIH:OVCAR-3 ovarian cancer cell cytotoxicity, dose response, PAX8 inhibitor project, plate reader, dry powder samples (AID 743044)", "assay_type": "functional, cell-based"}, "[18]": {"target": "T2, Polyadenylate-binding protein 1 (Homo sapiens, UniProt P11940)", "T2 sequence (P11940 whole entry)": "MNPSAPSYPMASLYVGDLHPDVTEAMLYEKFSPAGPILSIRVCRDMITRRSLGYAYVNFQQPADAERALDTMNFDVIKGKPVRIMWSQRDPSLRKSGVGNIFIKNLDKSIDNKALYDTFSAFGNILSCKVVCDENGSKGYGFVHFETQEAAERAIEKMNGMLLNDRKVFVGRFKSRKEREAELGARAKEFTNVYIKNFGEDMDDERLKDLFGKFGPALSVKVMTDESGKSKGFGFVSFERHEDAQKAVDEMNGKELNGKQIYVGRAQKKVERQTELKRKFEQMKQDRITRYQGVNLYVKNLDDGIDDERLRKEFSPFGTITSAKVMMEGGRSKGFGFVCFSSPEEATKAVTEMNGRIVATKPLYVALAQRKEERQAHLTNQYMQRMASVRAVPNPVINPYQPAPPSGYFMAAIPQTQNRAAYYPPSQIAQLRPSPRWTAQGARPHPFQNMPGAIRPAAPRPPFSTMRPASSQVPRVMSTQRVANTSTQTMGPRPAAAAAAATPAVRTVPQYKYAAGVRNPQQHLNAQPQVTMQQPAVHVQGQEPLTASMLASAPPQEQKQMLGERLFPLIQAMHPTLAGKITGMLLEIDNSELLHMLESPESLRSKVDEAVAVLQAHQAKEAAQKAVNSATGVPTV", "experiment": "PABP1 MLLE–PAM2 binding inhibitor potency, dose response, biochemical, fluorescence polarization, FITC-PAM2 peptide (AID 602259)", "assay_type": "functional", "settings": "read-out: IC50_Mean"}, "[19]": {"target": "T3, Mannose-6-phosphate isomerase (Homo sapiens, UniProt P34949)", "T3 sequence (P34949 whole entry)": "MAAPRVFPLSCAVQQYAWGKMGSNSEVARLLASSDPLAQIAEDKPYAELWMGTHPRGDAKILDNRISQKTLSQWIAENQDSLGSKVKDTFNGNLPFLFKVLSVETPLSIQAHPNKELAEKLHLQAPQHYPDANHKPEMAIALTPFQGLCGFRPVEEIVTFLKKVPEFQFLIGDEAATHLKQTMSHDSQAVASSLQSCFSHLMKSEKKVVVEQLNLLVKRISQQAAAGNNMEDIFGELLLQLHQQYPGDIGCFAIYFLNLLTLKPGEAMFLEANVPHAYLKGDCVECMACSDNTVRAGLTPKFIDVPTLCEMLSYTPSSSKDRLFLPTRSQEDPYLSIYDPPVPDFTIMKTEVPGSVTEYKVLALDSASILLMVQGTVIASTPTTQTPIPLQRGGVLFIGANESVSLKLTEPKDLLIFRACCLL", "experiment": "human PMI inhibitors, high substrate, primary screen, biochemical, fluorescence intensity, high mannose 6-phosphate (AID 1220)"}, "[20]": {"target": "T2, Polyadenylate-binding protein 1", "experiment": "PABP1 MLLE–PAM2 interaction inhibitors, dose response, miRNA deadenylation inhibitor project, biochemical, fluorescence polarization, Cy5-PAM2 peptide, secondary (AID 602260)", "assay_type": "functional", "settings": "read-out: IC50_Mean"}, "[21]": {"target": "T4, Oxysterols receptor LXR-beta (Homo sapiens, UniProt P55055)", "T4 sequence (P55055 whole entry)": "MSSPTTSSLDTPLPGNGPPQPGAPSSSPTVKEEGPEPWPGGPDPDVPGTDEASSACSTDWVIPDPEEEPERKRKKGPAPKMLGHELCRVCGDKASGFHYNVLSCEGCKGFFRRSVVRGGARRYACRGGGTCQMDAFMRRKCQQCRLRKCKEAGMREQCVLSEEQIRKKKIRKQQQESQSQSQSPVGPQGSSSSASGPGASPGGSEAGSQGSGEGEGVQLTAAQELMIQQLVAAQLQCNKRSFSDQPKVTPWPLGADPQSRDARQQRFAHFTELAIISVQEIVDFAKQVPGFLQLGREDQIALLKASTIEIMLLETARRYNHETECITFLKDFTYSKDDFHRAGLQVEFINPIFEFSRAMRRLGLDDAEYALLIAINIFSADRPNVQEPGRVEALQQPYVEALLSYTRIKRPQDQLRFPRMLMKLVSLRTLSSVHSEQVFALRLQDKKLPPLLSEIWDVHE", "experiment": "LXR agonists, Gal4 luciferase reporter, dose response, counter-screen for ssDAF-12 agonist project, cell-based, luminescence, HEK293, S. stercoralis campaign (AID 720737)", "assay_type": "functional", "settings": "read-out: IC50 (the source's name)"}, "[22]": {"experiment": "Luminescence-based cell-based high throughput dose response assay to identify activators of the DAF-12 from the parasite S. stercoralis (ssDAF-12).", "assay_type": "functional"}, "Leucine aminopeptidase": {"target": "T5, Leucine aminopeptidase (Plasmodium falciparum 3D7, UniProt Q8IL11)", "T5 sequence (Q8IL11 whole entry)": "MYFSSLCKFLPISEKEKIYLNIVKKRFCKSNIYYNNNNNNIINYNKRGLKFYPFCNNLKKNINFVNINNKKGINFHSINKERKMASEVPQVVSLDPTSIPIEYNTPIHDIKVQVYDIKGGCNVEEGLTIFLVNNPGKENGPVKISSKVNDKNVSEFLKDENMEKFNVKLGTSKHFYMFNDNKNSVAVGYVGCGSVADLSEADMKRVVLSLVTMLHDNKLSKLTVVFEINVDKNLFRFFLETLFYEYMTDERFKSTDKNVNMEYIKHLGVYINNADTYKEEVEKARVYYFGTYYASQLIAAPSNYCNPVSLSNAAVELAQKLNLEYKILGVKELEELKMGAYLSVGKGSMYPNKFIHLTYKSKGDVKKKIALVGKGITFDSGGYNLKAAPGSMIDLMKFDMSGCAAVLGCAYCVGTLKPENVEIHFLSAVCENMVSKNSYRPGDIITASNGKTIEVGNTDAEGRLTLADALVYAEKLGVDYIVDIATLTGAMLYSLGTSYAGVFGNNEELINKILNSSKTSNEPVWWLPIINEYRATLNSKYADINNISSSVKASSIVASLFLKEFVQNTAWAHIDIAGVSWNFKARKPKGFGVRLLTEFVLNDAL", "experiment": "P. falciparum M17LAP inhibitors, primary screen, biochemical, fluorogenic H-Leu-NHMec substrate, 1536-well (AID 1619)", "assay_type": "functional"}, "[23]": {"experiment": "non-specific cell cytotoxicity, dose response, cytotoxicity control for PAX8 inhibitor project, plate reader, dry powder samples (AID 743021)", "assay_type": "functional, cell-based"}}, "note": "Calls of active or inactive are those of the source."}
{"compound": "Nc1nc2c(s1)COc1ccccc1-2", "values": [{"measurement": "IC50", "setting": "[1]", "result": "> 100 µM (active)"}]}
{"compound": "CCOC(=O)c1c(N)sc(C(N)=O)c1C", "values": [{"measurement": "AC50", "setting": "[2]", "result": "5.1 µM (active)"}]}
{"compound": "O=C(Nc1nc2ccccc2s1)C1c2ccccc2Oc2ccccc21", "values": [{"measurement": "IC50", "setting": "[1]", "result": "> 100 µM (active)"}]}
{"compound": "CCOC(=O)c1cnc(Nc2nc3ccccc3o2)nc1C", "values": [{"measurement": "EC50", "setting": "BJ [3]", "result": "17 µM (active)"}, {"measurement": "AC50", "setting": "[4]", "result": "1.11 µM (active)"}, {"measurement": "EC50", "setting": "[5]", "result": "0.35 µM (active)"}, {"measurement": "AC50", "setting": "[6]", "result": "5.13 µM (active)"}, {"measurement": "EC50", "setting": "[7]", "result": "0.278 µM (active)"}, {"measurement": "AC50", "setting": "[8]", "result": "16.9 µM (active)"}, {"measurement": "AC50", "setting": "[9]", "result": "51.2 µM (active)"}, {"measurement": "AC50", "setting": "[10]", "result": "1.56 µM (active)"}, {"measurement": "EC50", "setting": "BJ [11]", "result": "11.1 µM (inconclusive)"}, {"measurement": "EC50", "setting": "[12]", "result": "0.382 µM (active)"}, {"measurement": "EC50", "setting": "BJ [13]", "result": "> 150 µM (inconclusive)"}, {"measurement": "EC50", "setting": "[14]", "result": "11.7 µM (active)"}]}
{"compound": "Cc1nn(-c2ccccc2)c(Cl)c1/C=N/O", "values": [{"measurement": "IC50", "setting": "[1]", "result": "> 100 µM (active)"}]}
{"compound": "Fc1ccc(-c2ccc3c(c2)C2CC3CCN2)cc1", "note": "(stereo not drawn)", "values": [{"measurement": "AC50", "setting": "[2]", "result": "1.25 µM (active)"}]}
{"compound": "OC[C@@H]1[C@H](c2ccc(-c3ccc(F)cc3)cc2)[C@@H]2CN(CCC(F)(F)F)CCCCN12", "values": [{"measurement": "AC50", "setting": "Paired box protein Pax-8", "result": "34.9 µM (active)"}, {"measurement": "AC50", "setting": "[15]", "result": "47.5 µM (active)"}, {"measurement": "AC50", "setting": "[16]", "result": "30 µM (active)"}, {"measurement": "AC50", "setting": "[17]", "result": "25.2 µM (active)"}]}
{"compound": "Nc1cccnc1Sc1cccc(Cl)c1", "values": [{"measurement": "IC50", "setting": "[18]", "result": "> 66 µM (inactive)"}, {"measurement": "IC50", "setting": "[19]", "result": "> 50 µM (not active)"}, {"measurement": "IC50", "setting": "[20]", "result": "> 66 µM (inactive)"}]}
{"compound": "O=C(CCNc1ccc(Cc2ccncc2)cc1)c1ccc([N+](=O)[O-])cc1", "values": [{"measurement": "EC50", "setting": "[21]", "result": "> 67.5 µM (inactive)"}, {"measurement": "IC50", "setting": "[22]", "result": "> 67.5 µM (inactive)"}, {"measurement": "IC50", "setting": "[19]", "result": "15.8 µM (active)"}]}
{"compound": "O=C(Nc1nccs1)c1ccc(NC(=O)C2CC=CCC2C(=O)O)cc1", "note": "(stereo not drawn)", "values": [{"measurement": "IC50", "setting": "Leucine aminopeptidase", "result": "23.2 µM (active)"}]}
{"compound": "COc1ccc(NC(=O)Nc2ccc3c(c2)C(=O)N([C@H](C)CO)C[C@@H](C)[C@H](CN(C)Cc2ccc(C(F)(F)F)cc2)OCCCC[C@H](C)O3)cc1", "values": [{"measurement": "AC50", "setting": "Paired box protein Pax-8", "result": "5.71 µM (active)"}, {"measurement": "AC50", "setting": "[15]", "result": "33.1 µM (active)"}, {"measurement": "AC50", "setting": "[16]", "result": "23 µM (active)"}, {"measurement": "AC50", "setting": "[17]", "result": "20.5 µM (active)"}, {"measurement": "AC50", "setting": "[23]", "result": "70 µM (active)"}]}
